Here are results for 1 compound from patent publication US7419778B2, “Method for high throughput cell-based assays using versatile living microarrays” (PameGene B.V., priority 2002, dated 2008).

The structures appear in SMILES notation.

This assay deals with E. coli XL2 Blue MRF′. Kind of assay: Sensitivity of E. coli to kanamycin in agar plugs on flow-through (Pam) substrate, zone of clearing. The following applies: 12 hours at 37° C. The class given is cell-based. How it is done:
[…] The porous nature of the substrate draws the molten agar into the pores by capillary action. These treated substrates were then overlaid with 10^6 cfu/ml E. coli XL2 MRF′ cells containing plasmid pUC18 that had been grown in 2TY broth with 100 μg/ml ampicillin and placed on 2TY plates with the same concentration of ampicillin. Plates were then incubated for 12 hours at 37° C.

For `NC[C@H]1O[C@H](O[C@H]2[C@H](O)[C@@H](O[C@H]3O[C@H](CO)[C@@H](O)[C@H](N)[C@H]3O)[C@H](N)C[C@@H]2N)[C@H](O)[C@@H](O)[C@@H]1O` [Kanamycin, kanamycin], the “Zone of clearing (diameter mm)” value (10 ng kanamycin, N=12) was determined as 0.4 mm; the “Zone of clearing (diameter mm)” value (100 ng kanamycin, N=16) was found to be 2.1 mm; the “Zone of clearing (diameter mm)” value (1000 ng kanamycin, N=12) worked out at 3.5 mm.
